Reference: patent publication US20220112187A1, “PYRAZOLOPYRIDINE AMINE COMPOUNDS FOR THE TREATMENT OF AUTOIMMUNE DISEASE” (Hoffmann-La Roche Inc., priority 2018, published 2022)

Target: T1, human TLR8 (Homo sapiens, UniProt Q9NR97)
T1 sequence (Q9NR97 27-1041): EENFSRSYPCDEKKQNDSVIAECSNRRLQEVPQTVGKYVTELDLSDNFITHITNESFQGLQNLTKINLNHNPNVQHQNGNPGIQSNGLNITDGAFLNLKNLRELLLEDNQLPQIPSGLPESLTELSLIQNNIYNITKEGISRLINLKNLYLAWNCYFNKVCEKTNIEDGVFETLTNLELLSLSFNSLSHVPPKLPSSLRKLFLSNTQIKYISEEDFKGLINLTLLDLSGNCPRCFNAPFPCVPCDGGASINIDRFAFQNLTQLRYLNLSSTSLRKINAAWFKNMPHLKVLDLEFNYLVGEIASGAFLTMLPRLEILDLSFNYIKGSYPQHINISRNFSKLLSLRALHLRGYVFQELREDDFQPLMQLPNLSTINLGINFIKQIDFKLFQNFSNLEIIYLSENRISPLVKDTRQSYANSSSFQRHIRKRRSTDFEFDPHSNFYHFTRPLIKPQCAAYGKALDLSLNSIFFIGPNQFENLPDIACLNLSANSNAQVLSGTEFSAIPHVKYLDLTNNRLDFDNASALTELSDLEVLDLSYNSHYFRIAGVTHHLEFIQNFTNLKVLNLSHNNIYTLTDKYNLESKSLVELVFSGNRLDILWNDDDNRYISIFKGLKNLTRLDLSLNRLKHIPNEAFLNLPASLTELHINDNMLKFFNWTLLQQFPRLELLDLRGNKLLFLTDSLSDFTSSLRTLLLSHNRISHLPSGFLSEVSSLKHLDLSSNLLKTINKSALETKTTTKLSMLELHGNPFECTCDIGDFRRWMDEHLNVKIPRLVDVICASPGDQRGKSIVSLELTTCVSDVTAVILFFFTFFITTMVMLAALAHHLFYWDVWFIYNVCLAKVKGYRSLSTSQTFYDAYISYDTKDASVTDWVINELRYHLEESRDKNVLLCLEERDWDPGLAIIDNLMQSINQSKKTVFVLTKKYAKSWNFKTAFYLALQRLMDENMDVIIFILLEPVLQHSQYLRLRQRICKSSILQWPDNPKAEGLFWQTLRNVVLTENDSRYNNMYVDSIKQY
Assay: HEK293-Blue-hTLR-8 cells assay (SEAP reporter, R848 stimulation)
Format: cell-based
Conditions: HEK293-Blue-hTLR8 cells, R848 ligand, 20 hrs incubation
Text: A stable HEK293-Blue-hTLR-8 cell line was purchased from InvivoGen (Cat. #: hkb-htlr8, San Diego, Calif., USA). These cells were originally designed for studying the stimulation of human TLR8 by monitoring the activation of NF-κB. A SEAP (secreted embryonic alkaline phosphatase) reporter gene was placed under the control of the IFN-β minimal promoter fused to five NF-κB and AP-1-binding sites. The SEAP was induced by activating NF-κB and AP-1 via stimulating HEK-Blue hTLR8 cells with TLR8 ligands. Therefore the reporter expression was declined by TLR8 antagonist under the stimulation of a ligand, such as R848, for incubation of 20 hrs. The cell culture supernatant SEAP reporter activity was determined using QUANTI-Blue™ kit (Cat. #: rep-qb1, Invivogen, San Diego, Ca, USA) at a wavelength of 640 nm, a detection medium that turns purple or blue in the presence of alkaline phosphatase.
HEK293-Blue-hTLR8 cells were incubated at a density of 250,000˜450,000 cells/mL in a volume of 170 μL in a 96-well plate in Dulbecco's Modified Eagle's medium (DMEM) containing 4.5 g/L glucose, 50 U/mL penicillin, […], […], 2 mM L-glutamine, 10% (v/v) heat-inactivated fetal bovine serum with addition of 20 μL test compound in a serial dilution in the presence of final DMSO at 1% and 10 μL of 60 uM R848 in above DMEM, perform incubation under 37° C. in a CO2 incubator for 20 hrs. Then 20 μL of the supernatant from each well was incubated with 180 μL Quanti-blue substrate solution at 37° C. for 2 hrs and the absorbance was read at 620˜655 nm using a spectrophotometer. The signalling pathway that TLR8 activation leads to downstream NF-κB activation has been widely accepted, and therefore similar reporter assay was modified for evaluating TLR8 antagonist.

| Compound | IC50 [nM] |
| --- | --- |
| C[C@@H]1CN(c2ccc(C#N)n3nccc23)C[C@H](CN2CCC(C)(N)CC2)O1 [Example 29, 4-[(2S,6R)-2-[(4-amino-4-methyl-1-piperidyl)methyl]-6-methyl-morpholin-4-yl]pyrazolo[1,5-a]pyridine-7-carbonitrile] | 52 |
| C[C@@H]1CN(c2ccc(C#N)n3nccc23)C[C@H](CN2CC3CCC2CN3)O1 (stereo partly drawn) [Example 30, 4-[(2S,6R)-2-(2,5-diazabicyclo[2.2.2]octan-2-ylmethyl)-6-methyl-morpholin-4-yl]pyrazolo[1,5-a]pyridine-7-carbonitrile] | 100 |
| C[C@@H]1CN(c2ccc(C#N)n3nccc23)C[C@H](CN2CC3CCC(C2)N3)O1 [Example 31, 4-[(2S,6R)-2-(3,8-diazabicyclo[3.2.1]octan-3-ylmethyl)-6-methyl-morpholin-4-yl]pyrazolo[1,5-a]pyridine-7-carbonitrile] | 97 |
| C[C@@H]1CN(c2ccc(C#N)n3nccc23)C[C@H](CN2CCCC3(CCNCC3)C2)O1 [Example 32, 4-[(2S,6R)-2-(2,9-diazaspiro[5.5]undecan-2-ylmethyl)-6-methyl-morpholin-4-yl]pyrazolo[1,5-a]pyridine-7-carbonitrile] | 91 |
| C[C@@H]1CN(c2ccc(C#N)n3nccc23)C[C@H](CN2CCCC3(CNC3)C2)O1 [Example 33, 4-[(2S,6R)-2-(2,6-diazaspiro[3.5]nonan-6-ylmethyl)-6-methyl-morpholin-4-yl]pyrazolo[1,5-a]pyridine-7-carbonitrile] | 54 |
| C[C@@H]1CN(c2ccc(C#N)n3nccc23)C[C@H](CN2CCC(N)C(F)(F)C2)O1 (stereo partly drawn) [Example 34, 4-[(2S,6R)-2-[(4-amino-3,3-difluoro-1-piperidyl)methyl]-6-methyl-morpholin-4-yl]pyrazolo[1,5-a]pyridine-7-carbonitrile] | 65 |
| C[C@@H]1CN(c2ccc(C#N)n3nccc23)C[C@H](CN2CC(N)C(F)(F)C2)O1 (stereo partly drawn) [Example 35, 4-[(2S,6R)-2-[(4-amino-3,3-difluoro-pyrrolidin-1-yl)methyl]-6-methyl-morpholin-4-yl]pyrazolo[1,5-a]pyridine-7-carbonitrile] | 950 |
| C[C@@H]1CN(c2ccc(C#N)n3nccc23)C[C@H](CN2CC3CCC(C2)C3N)O1 (stereo partly drawn) [Example 36, 4-[(2S,6R)-2-[(8-amino-3-azabicyclo[3.2.1]octan-3-yl)methyl]-6-methyl-morpholin-4-yl]pyrazolo[1,5-a]pyridine-7-carbonitrile] | 90 |
| C[C@@H]1CN(c2ccc(C#N)n3nccc23)C[C@H](CN2C3CCC2CC(N)C3)O1 (stereo partly drawn) [Example 37, 4-[(2S,6R)-2-[(3-amino-8-azabicyclo[3.2.1]octan-8-yl)methyl]-6-methyl-morpholin-4-yl]pyrazolo[1,5-a]pyridine-7-carbonitrile] | 45 |
| C[C@@H]1CN(c2ccc(C#N)n3nccc23)C[C@H](CN2CCN[C@H](c3ccccc3)C2)O1 [Example 38, 4-[(2R,6S)-2-methyl-6-[[(3R)-3-phenylpiperazin-1-yl]methyl]morpholin-4-yl]pyrazolo[1,5-a]pyridine-7-carbonitrile] | 37 |
| C[C@@H]1CN(c2ccc(C#N)n3nccc23)C[C@H](CN2CCC(N3CCNCC3)CC2)O1 [Example 39, 4-[(2R,6S)-2-methyl-6-[(4-piperazin-1-yl-1-piperidyl)methyl]morpholin-4-yl]pyrazolo[1,5-a]pyridine-7-carbonitrile] | 180 |
| C[C@@H]1CN(c2ccc(C#N)n3nccc23)C[C@H](CN2CCNC3(CC3)C2)O1 [Example 40, 4-[(2S,6R)-2-(4,7-diazaspiro[2.5]octan-7-ylmethyl)-6-methyl-morpholin-4-yl]pyrazolo[1,5-a]pyridine-7-carbonitrile] | 140 |
| C[C@@H]1CN(c2ccc(C#N)n3nccc23)C[C@H](CN2CCC3NCCC3C2)O1 (stereo partly drawn) [Example 41, 4-[(2S,6R)-2-(1,2,3,3a,4,6,7,7a-octahydropyrrolo[3,2-c]pyridin-5-ylmethyl)-6-methyl-morpholin-4-yl]pyrazolo[1,5-a]pyridine-7-carbonitrile] | 29 |
| C[C@@H]1CN(c2ccc(C#N)n3nccc23)C[C@H](CN2CCC3(CCCCN3)C2)O1 (stereo partly drawn) [Example 42, 4-[(2S,6R)-2-(2,6-diazaspiro[4.5]decan-2-ylmethyl)-6-methyl-morpholin-4-yl]pyrazolo[1,5-a]pyridine-7-carbonitrile] | 65 |
| C[C@@H]1CN(c2ccc(C#N)n3nccc23)C[C@H](CN2C3CCC2CNC3)O1 [Example 43, 4-[(2S,6R)-2-(3,8-diazabicyclo[3.2.1]octan-8-ylmethyl)-6-methyl-morpholin-4-yl]pyrazolo[1,5-a]pyridine-7-carbonitrile] | 31 |
| C[C@@H]1CN(c2ccc(C#N)n3nccc23)C[C@H](CN2CCCC3(CCNC3)C2)O1 (stereo partly drawn) [Example 44, 4-[(2S,6R)-2-(2,7-diazaspiro[4.5]decan-7-ylmethyl)-6-methyl-morpholin-4-yl]pyrazolo[1,5-a]pyridine-7-carbonitrile] | 25 |
| C[C@@H]1CN(c2ccc(C#N)n3nccc23)C[C@H](CN2CC3CCCNC3C2)O1 (stereo partly drawn) [Example 45, 4-[(2S,6R)-2-(1,2,3,4,4a,5,7,7a-octahydropyrrolo[3,4-b]pyridin-6-ylmethyl)-6-methyl-morpholin-4-yl]pyrazolo[1,5-a]pyridine-7-carbonitrile] | 230 |
| C[C@@H]1CN(c2ccc(C#N)n3nccc23)C[C@H](CN2CC3(CCCNCC3)C2)O1 [Example 46, 4-[(2S,6R)-2-(2,8-diazaspiro[3.6]decan-2-ylmethyl)-6-methyl-morpholin-4-yl]pyrazolo[1,5-a]pyridine-7-carbonitrile] | 150 |
| C[C@@H]1CN(c2ccc(C#N)n3nccc23)C[C@H](CN2CCC3(CCCCN3)CC2)O1 [Example 47, 4-[(2S,6R)-2-(1,9-diazaspiro[5.5]undecan-9-ylmethyl)-6-methyl-morpholin-4-yl]pyrazolo[1,5-a]pyridine-7-carbonitrile] | 31 |
| C[C@@H]1CN(c2ccc(C#N)n3nccc23)C[C@H](CN2CCC3(CCN3)CC2)O1 [Example 48, 4-[(2S,6R)-2-(1,7-diazaspiro[3.5]nonan-7-ylmethyl)-6-methyl-morpholin-4-yl]pyrazolo[1,5-a]pyridine-7-carbonitrile] | 110 |
| C[C@@H]1CN(c2ccc(C#N)n3nccc23)C[C@H](CN2CC3CCNCC3C2)O1 (stereo partly drawn) [Example 49, 4-[(2S,6R)-2-(1,3,3a,4,5,6,7,7a-octahydropyrrolo[3,4-c]pyridin-2-ylmethyl)-6-methyl-morpholin-4-yl]pyrazolo[1,5-a]pyridine-7-carbonitrile] | 150 |
| CC1CC(N)CCN1C[C@H]1CN(c2ccc(C#N)n3nccc23)C[C@@H](C)O1 (stereo partly drawn) [Example 51, 4-[(2S,6R)-2-[(4-amino-2-methyl-1-piperidyl)methyl]-6-methyl-morpholin-4-yl]pyrazolo[1,5-a]pyridine-7-carbonitrile] | 40 |
| C[C@@H]1CN(c2ccc(C#N)n3nccc23)C[C@H](CN2CC3CNCCC32)O1 (stereo partly drawn) [Example 52, 4-[(2S,6R)-2-(3,7-diazabicyclo[4.2.0]octan-7-ylmethyl)-6-methyl-morpholin-4-yl]pyrazolo[1,5-a]pyridine-7-carbonitrile] | 53 |
| C[C@@H]1CN(c2ccc(C#N)n3nccc23)C[C@H](CN2CCC3(CCCN3)CC2)O1 [Example 53, 4-[(2S,6R)-2-(1,8-diazaspiro[4.5]decan-8-ylmethyl)-6-methyl-morpholin-4-yl]pyrazolo[1,5-a]pyridine-7-carbonitrile] | 29 |
